Patent publication EP1517674B1, “PREPARATIONS FOR THE INTRANASAL APPLICATION OF SELECTED CGRP A[…] FROM AMINO ACIDS AND A METHOD FOR THEIR PRODUCTION” (Boehringer Ingelheim Pharma GmbH & Co. KG, priority 2002, dated 2003)

Assay: Stability test of higher-concentration nasal spray solutions (hydrochloride in aqueous solution, packed in aluminium pouch)
Type: physicochemical
Conditions: for Gehalt an Wirkstoff (A): as free base
Method: Stabilitätsprüfung höher konzentrierter erfindungsgemäßer Nasalspray-Lösungen:
Die nachfolgende Tabelle zeigt, dass die oxidative Zersetzung des nachstehend aufgeführten Wirkstoffs
Die zum Teil (insbesondere bei 40°C) hohe Gesamtzersetzung beruht auf Hydrolyse.
Der in der Tabelle 1 angegebene Gehalt an Wirkstoff (A) bezieht sich jeweils auf die ursprünglich eingewogene freie Base.

[1] = Wirkstoff-Konzentration 15 %, 3-Monats-Wert, 25°C, 129600 min
[2] = Wirkstoff-Konzentration 15 %, 3-Monats-Wert, 40°C, 129600 min
[3] = Wirkstoff-Konzentration 15 %, 6-Monats-Wert, 25°C, 259200 min
[4] = Wirkstoff-Konzentration 15 %, 6-Monats-Wert, 40°C, 259200 min
[5] = Wirkstoff-Konzentration 15 %, 6-Wochen-Wert, 25°C, 60480 min
[6] = Wirkstoff-Konzentration 15 %, 6-Wochen-Wert, 40°C, 60480 min
[7] = Wirkstoff-Konzentration 15 %, Anfangswert
[8] = Wirkstoff-Konzentration 20 %, 3-Monats-Wert, 25°C, 129600 min
[9] = Wirkstoff-Konzentration 20 %, 3-Monats-Wert, 40°C, 129600 min
[10] = Wirkstoff-Konzentration 20 %, 6-Monats-Wert, 25°C, 259200 min
[11] = Wirkstoff-Konzentration 20 %, 6-Monats-Wert, 40°C, 259200 min
[12] = Wirkstoff-Konzentration 20 %, 6-Wochen-Wert, 25°C, 60480 min
[13] = Wirkstoff-Konzentration 20 %, 6-Wochen-Wert, 40°C, 60480 min
[14] = Wirkstoff-Konzentration 20 %, Anfangswert
[15] = Wirkstoff-Konzentration 30 %, 3-Monats-Wert, 25°C, 129600 min
[16] = Wirkstoff-Konzentration 30 %, 3-Monats-Wert, 40°C, 129600 min
[17] = Wirkstoff-Konzentration 30 %, 6-Monats-Wert, 25°C, 259200 min
[18] = Wirkstoff-Konzentration 30 %, 6-Monats-Wert, 40°C, 259200 min
[19] = Wirkstoff-Konzentration 30 %, 6-Wochen-Wert, 25°C, 60480 min
[20] = Wirkstoff-Konzentration 30 %, 6-Wochen-Wert, 40°C, 60480 min
[21] = Wirkstoff-Konzentration 30 %, Anfangswert

With `NCCCC[C@H](NC(=O)[C@@H](Cc1cc(Br)c(O)c(Br)c1)NC(=O)N1CCC(N2Cc3ccccc3NC2=O)CC1)C(=O)N1CCN(c2ccncc2)CC1` [(A), 1-[N^2-[3,5-Dibrom-N-[[4-(3,4-dihydro-2(1 H)-oxochinazolin-3-yl)-1-piperidinyl]-carbonyl]-D-tyrosyl]-L-lysyl]-4-(4-pyridinyl)-piperazin] the Gesamt-Zersetzung [1] was 1,69%, the “Zersetzung durch Oxidation” value [1] was 0,64% and the “Gehalt an Wirkstoff (A)” value (Wirkstoff-Konzentration 15 %, 3-Monats-Wert, 25°C) was 147,7mg/ml. The Gesamt-Zersetzung [2] was 8,22%, the “Zersetzung durch Oxidation” value [2] was 0,55% and the “Gehalt an Wirkstoff (A)” value (Wirkstoff-Konzentration 15 %, 3-Monats-Wert, 40°C) was 139,4mg/ml. For the same molecule, the Gesamt-Zersetzung [3] was 2,07%, the “Zersetzung durch Oxidation” value [3] was 0,82% and the “Gehalt an Wirkstoff (A)” value (Wirkstoff-Konzentration 15 %, 6-Monats-Wert, 25°C) was 147,7mg/ml. The Gesamt-Zersetzung [4] was 15.33%, the “Zersetzung durch Oxidation” value [4] was 0,78% and the “Gehalt an Wirkstoff (A)” value (Wirkstoff-Konzentration 15 %, 6-Monats-Wert, 40°C) was 131,7mg/ml. The Gesamt-Zersetzung [5] was 1,60%, the “Zersetzung durch Oxidation” value [5] was 0,72% and the “Gehalt an Wirkstoff (A)” value (Wirkstoff-Konzentration 15 %, 6-Wochen-Wert, 25°C) was 148,1mg/ml. For the same molecule, the Gesamt-Zersetzung [6] was 4,46%, the “Zersetzung durch Oxidation” value [6] was 0,52% and the “Gehalt an Wirkstoff (A)” value (Wirkstoff-Konzentration 15 %, 6-Wochen-Wert, 40°C) was 142,3mg/ml. For the same molecule, the Gesamt-Zersetzung [7] was 1,23%, the “Zersetzung durch Oxidation” value [7] was 0,59% and the “Gehalt an Wirkstoff (A)” value [7] was 148,6mg/ml. The Gesamt-Zersetzung [8] was 1,50%, the “Zersetzung durch Oxidation” value [8] was 0,53% and the “Gehalt an Wirkstoff (A)” value (Wirkstoff-Konzentration 20 %, 3-Monats-Wert, 25°C) was 202,8mg/ml. The Gesamt-Zersetzung [9] was 8,23%, the “Zersetzung durch Oxidation” value [9] was 0,47% and the “Gehalt an Wirkstoff (A)” value (Wirkstoff-Konzentration 20 %, 3-Monats-Wert, 40°C) was 191,4mg/ml. For the same molecule, the Gesamt-Zersetzung [10] was 1,99%, the “Zersetzung durch Oxidation” value [10] was 0,77% and the “Gehalt an Wirkstoff (A)” value (Wirkstoff-Konzentration 20 %, 6-Monats-Wert, 25°C) was 201,8m/ml. For the same molecule, the Gesamt-Zersetzung [11] was 14,61%, the “Zersetzung durch Oxidation” value [11] was 0,74% and the “Gehalt an Wirkstoff (A)” value (Wirkstoff-Konzentration 20 %, 6-Monats-Wert, 40°C) was 182,8mg/ml. For the same molecule, the Gesamt-Zersetzung [12] was 1,09%, the “Zersetzung durch Oxidation” value [12] was 0,54% and the “Gehalt an Wirkstoff (A)” value (Wirkstoff-Konzentration 20 %, 6-Wochen-Wert, 25°C) was 198,7mg/ml. For the same molecule, the Gesamt-Zersetzung [13] was 3,97%, the “Zersetzung durch Oxidation” value [13] was 0,55% and the “Gehalt an Wirkstoff (A)” value (Wirkstoff-Konzentration 20 %, 6-Wochen-Wert, 40°C) was 192,1mg/ml. For the same molecule, the Gesamt-Zersetzung [14] was 1,27%, the “Zersetzung durch Oxidation” value [14] was 0,56% and the “Gehalt an Wirkstoff (A)” value [14] was 197,9mg/ml. For the same molecule, the Gesamt-Zersetzung [15] was 1,48%, the “Zersetzung durch Oxidation” value [15] was 0,60% and the “Gehalt an Wirkstoff (A)” value (Wirkstoff-Konzentration 30 %, 3-Monats-Wert, 25°C) was 270 mg/mL. For the same molecule, the Gesamt-Zersetzung [16] was 7.81%, the “Zersetzung durch Oxidation” value [16] was 0,59% and the “Gehalt an Wirkstoff (A)” value (Wirkstoff-Konzentration 30 %, 3-Monats-Wert, 40°C) was 260 mg/mL. The Gesamt-Zersetzung [17] was 2,04%, the “Zersetzung durch Oxidation” value [17] was 0,91% and the “Gehalt an Wirkstoff (A)” value (Wirkstoff-Konzentration 30 %, 6-Monats-Wert, 25°C) was 273 mg/mL. The Gesamt-Zersetzung [18] was 13,36%, the “Zersetzung durch Oxidation” value [18] was 0,84% and the “Gehalt an Wirkstoff (A)” value (Wirkstoff-Konzentration 30 %, 6-Monats-Wert, 40°C) was 246 mg/mL. The Gesamt-Zersetzung [19] was 1,19%, the “Zersetzung durch Oxidation” value [19] was 0,62% and the “Gehalt an Wirkstoff (A)” value (Wirkstoff-Konzentration 30 %, 6-Wochen-Wert, 25°C) was 264 mg/mL. For the same molecule, the Gesamt-Zersetzung [20] was 3,95%, the “Zersetzung durch Oxidation” value [20] was 0,58% and the “Gehalt an Wirkstoff (A)” value (Wirkstoff-Konzentration 30 %, 6-Wochen-Wert, 40°C) was 260 mg/mL. For the same molecule, the Gesamt-Zersetzung [21] was 1,20%, the “Zersetzung durch Oxidation” value [21] was 0,56% and the “Gehalt an Wirkstoff (A)” value [21] was 269 mg/mL. For the same molecule, the “oxidative Zersetzung” value (hydrochloride in aqueous solution, over a long period) was “praktisch unverändert”.
